Experimental data from US10759803B2, “Asparagine endopeptidase (AEP) inhibitors for managing cancer and compositions related thereto” (priority 2014, dated 2020).

Key:
[1] = BBB-PAMPA permeability assay; assay type: in vitro ADME
CYP3A4 = CYP3A4 (Homo sapiens, UniProt P08684); test: CYP inhibition screening, CYP3A4-Midazolam; assay type: in vitro ADME
CYP3A = test: CYP inhibition screening, CYP3A-Testosterone; assay type: in vitro ADME
CYP2C9 = CYP2C9 (Homo sapiens, UniProt P11712); test: CYP inhibition screening, CYP2C9; assay type: in vitro ADME
CYP2D6 = CYP2D6 (Homo sapiens, UniProt P10635); test: CYP inhibition screening, CYP2D6; assay type: in vitro ADME
CYP2C19 = CYP2C19 (Homo sapiens, UniProt P33261); test: CYP inhibition screening, CYP2C19; assay type: in vitro ADME
CYP1A2 = molecular target: T1, CYP1A2 (Homo sapiens, UniProt P05177); test: CYP inhibition screening, CYP1A2; assay type: in vitro ADME
T1 sequence (P05177 1-516): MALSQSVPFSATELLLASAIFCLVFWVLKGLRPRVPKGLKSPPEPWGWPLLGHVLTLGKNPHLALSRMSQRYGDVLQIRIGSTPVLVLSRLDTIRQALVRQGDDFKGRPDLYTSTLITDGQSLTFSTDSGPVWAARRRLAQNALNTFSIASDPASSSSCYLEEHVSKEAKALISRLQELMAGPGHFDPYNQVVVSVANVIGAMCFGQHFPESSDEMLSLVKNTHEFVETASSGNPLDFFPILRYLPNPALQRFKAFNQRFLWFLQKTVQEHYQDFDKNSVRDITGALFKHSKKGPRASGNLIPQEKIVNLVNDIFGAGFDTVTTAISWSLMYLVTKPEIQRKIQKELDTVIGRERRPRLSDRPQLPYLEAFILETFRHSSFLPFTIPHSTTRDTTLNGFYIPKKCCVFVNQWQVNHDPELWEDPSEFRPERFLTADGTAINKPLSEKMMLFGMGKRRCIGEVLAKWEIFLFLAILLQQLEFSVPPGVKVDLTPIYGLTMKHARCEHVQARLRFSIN

AEP [2] = test: AEP activity in OGD-treated primary neurons; assay type: cell-based; conditions: 0.1 μM or 1.0 μM compound, 5 μM Cbz-Ala-Ala-Asn-AMC
Protocol: (§1) A. AEP activity, measured in primary neuronal cultures with 5 μM Cbz-Ala-Ala-Asn-AMC (x-axis denotes neurons were treated with 0.1 μM or 1.0 μM specified compound). B. Caspase activity, measured in primary neuronal cultures with 5 μM Ac-Asp-Glu-Val-Asp-AMC. C. Cathepsin activity, measured in primary neuronal cultures with 5 μM D-Val-Leu-Lys-AMC. D. Inhibition of APP cleavage. Lysates of primary cortical neurons pre-incubated with compounds for 30 min, underwent OGD for 4 hrs, were reperfused for 18 hrs (normoxia neurons remained at normoxic conditions). E. APP can be cleaved in a dose-dependent manner. Lysates of primary cortical neurons pre-incubated with compounds for 30 min, underwent OGD for 4 hrs, were reperfused for 18 hrs (normoxia neurons remained at normoxic conditions).
Depriving cells of oxygen and glucose is a cellular model that is employed to trigger acidosis in cultured cells. The efficacy of the compounds in a cellular model of oxygen-glucose deprivation (OGD) was determined in an effort to mimic the effects of stroke in primary cultured neurons. As a result of depriving neurons of oxygen and glucose-containing medium, AEP activity was doubled (FIG. 7A, ‘DMSO-Norm’ compared to ‘DMSO-OGD’), while Caspase-3 and Cathepsin activities remained relatively unchanged. […]

[3] = system: amyloid precursor protein (APP) cleavage; test: APP cleavage in OGD-treated primary cortical neurons; assay type: cell-based
Protocol: as §1
Depriving cells of oxygen and glucose is a cellular model that is employed to trigger acidosis in cultured cells. The efficacy of the compounds in a cellular model of oxygen-glucose deprivation (OGD) was determined in an effort to mimic the effects of stroke in primary cultured neurons. As a result of depriving neurons of oxygen and glucose-containing medium, AEP activity was doubled (FIG. 7A, ‘DMSO-Norm’ compared to ‘DMSO-OGD’), while Caspase-3 and Cathepsin activities remained relatively unchanged. […] Cleavage of APP is observed in response to only DMSO treatment (FIG. 7D, lane 2), and it appears that upon the treatment of 1 μM of compounds 10, 11, and 12, and just 0.1 μM of compound s31, 38 and 64, the cleavage was blocked, presumably due to AEP inhibition.

Caco-2 monolayer = Caco-2 monolayer permeability screen; conditions: Table 1
Protocol: To explore the in vitro ADME profiles of the compounds, additional tests were conducted.

[4] = Human liver microsomal stability screen; conditions: Human liver microsomes
[5] = Mouse liver microsomal stability screen; conditions: Mouse liver microsomes
AEP [6] = molecular target: T2, AEP (Homo sapiens, UniProt Q99538); test: IC50 assay with purified recombinant AEP; assay type: biochemical; conditions: purified active AEP; read-out: IC50 toward AEP
T2 construct: tested with purified active AEP, IC50 values for the top 8 candidates were found
T2 sequence (Q99538 18-323 limits assumed): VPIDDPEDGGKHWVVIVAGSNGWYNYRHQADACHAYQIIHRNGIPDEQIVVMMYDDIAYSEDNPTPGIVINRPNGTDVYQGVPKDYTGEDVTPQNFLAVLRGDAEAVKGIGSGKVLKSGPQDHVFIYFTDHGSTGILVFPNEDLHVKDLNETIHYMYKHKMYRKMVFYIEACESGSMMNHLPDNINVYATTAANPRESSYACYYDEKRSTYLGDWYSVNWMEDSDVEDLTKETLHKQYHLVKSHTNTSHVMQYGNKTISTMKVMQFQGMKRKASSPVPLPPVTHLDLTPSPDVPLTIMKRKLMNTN
Protocol: Purified recombinant enzyme was incubated with various concentrations of inhibitor in appropriate assay buffers in the presence of increasing concentrations of inhibitor. The formation of fluorescent product was monitored in duplicate reactions and the data was fit to appropriate equations to calculate the IC50 values.
To identify small-molecule inhibitors of AEP, a high-throughput screen was designed in conjunction with the Emory Chemical Biology Discovery Center. The screen incorporated mouse kidney lysates to assay a 54,384 compound library. […] Additional structural analysis and grouping allowed the compounds to be sorted into 8 distinct backbone families. […] The specificity of the compounds was also determined using four major cysteine proteases (FIG. 2).
Various concentrations of the appropriate compound were incubated with AEP reaction buffer (50 mM Sodium Citrate pH 5.5, 0.1% CHAPS, 60 mM Na2HPO4, 1 mM EDTA, final pH 6.0) and peptide substrate, 10 μM Cbz-Ala-Ala-Asn-AMC (Bachem). The reaction was initiated upon addition of 50 nM AEP and fluorescent product formation was monitored over 15 min. […] Data were analyzed with GraFit version 5.0.11 software package.

Cathepsin-L = Cathepsin-L (Homo sapiens, UniProt P07711); test: Specificity assay against Cathepsin-L; assay type: biochemical
[7] = molecular target: T3, endogenous AEP in human B lymphoblastoid pala cells (Homo sapiens, UniProt Q99538); test: AEP inhibition in intact Pala cells; assay type: cell-based; conditions: 2 hrs incubation, residual enzymatic activity in lysate
T3 construct: human B lymphoblastoid pala cells, which are rich in endogenous AEP; endogenous in cells; host or cells: human B lymphoblastoid Pala cells
T3 sequence (Q99538 18-323): T2 sequence (Q99538 18-323 limits assumed)
Protocol: The cells were incubated with inhibitors for 2 hrs then cells washed, harvested and lysed and the residual enzymatic activity was determined. Lysate was normalized by Bradford assay and the experiment was performed in triplicate and the mean results and SEM were plotted.
In an attempt to assess the activity of the compounds in intact cells, the compounds were incubated with human B lymphoblastoid pala cells, which are rich in endogenous AEP and have been used for inhibiting AEP in cellular assay.

AEP [8] = molecular target: T2, AEP; test: DTT / L-cysteine reversibility of AEP inhibition; assay type: biochemical; conditions: 10 mM DTT or L-cysteine added after 15 min
Protocol: AEP was reacted with specified inhibitor, after 15 min 10 mM DTT or L-cysteine was added to the reaction and the fluorescent signal was read for an additional 15 min. At the end of the second 15 min incubation, the percentage of product formed in the presence of each compound was determined in comparison to the DMSO control reaction.
Although it is not intended that embodiments of this disclosure be limited by any particular mechanism, to gain additional insight into the mechanism utilized by the inhibitors for abrogation of AEP activity, their reversibility in the presence of free thiols was determined. The addition of a strong reducing agent, such as DTT, or a weaker reducing agent, L-cysteine, to an inhibited reaction can be used to out-compete the inhibitory agent and restore catalytic activity to an enzyme with an active-site thiol residue. Here, a similar approach was used by adding a reducing agent, either DTT or L-cysteine, to a reaction, in which AEP had been incubated with a specified inhibitor, in an attempt to reverse the effects of the inhibitor. […] For compounds BB1 and 38, this increase in enzymatic activity may be due to the reduction of a disulfide linkage between the inhibitor and the enzyme, since these compounds contain thiols. Compound 10 contains a thiocyanate and may undergoes nucleophilic attack by the enzyme's active-site thiolate to form a thioimidate enzyme-inhibitor complex. Under acidic conditions, this complex is reducible by either a strong reducing agent, such as DTT, or the weaker L-cysteine.

AEP [9] = molecular target: T2, AEP; test: Inhibition kinetics assays (steady-state, Z-AAN-AMC); assay type: biochemical; conditions: competitive inhibition
Protocol: (§2) KI values for each inhibitor were determined by global fits to the competitive inhibition equation. C. Time course inactivation assays were used to generate progress curves, depicting product formation as a function of time. […] E. Time course inactivation assays were used to generate progress curves, depicting product formation as a function of time. Pseudo first-order rate constants were obtained at each concentration of compound BB1. F. Re-plot of the pseudo first-order rate constants, kobs, vs. the concentration of compound BB1.
(§3) A. Michaelis-Menten plots displaying competitive inhibition of AEP. The inhibition constant, K1, was determined from the globally fit data. B. Double reciprocal Lineweaver-Burk plots also displaying competitive inhibition. C. […] DC. A plot of the corrected kobs values obtained from each curve in (B) versus the concentration of compound 38, which enabled the calculation of the second-order rate constant, kinact/KI to be determined to measure the potency of the inhibitor.
To determine the inhibition constants and the mechanism by which compound 38 inhibits AEP, the steady-state kinetic parameters for the hydrolysis of the peptide substrate, Z-AAN-AMC, were determined in the absence or presence of increasing concentrations of inhibitor. In these assays, specified concentrations of the inhibitor were pre-incubated with substrate for 10 min at 37° C., then 50 nM AEP was added to initiate the reaction, which was quenched after 10 min. […]
In the equations, Kii is the intercept Ki, and Kis is the slope Ki. The mode of the inhibition induced by the compounds on AEP was determined by the best fit of the data to equations 1-4. […]

AEP [10] = molecular target: T2, AEP; test: Time course inactivation assays; assay type: biochemical
Protocol: as §2, §3
Progress curves were generated by incubating 5 μM Z-AAN-AMC and the specified concentration of inhibitor in assay buffer at 37° C. for 10 min. The reaction was initiated by the addition of 50 nM AEP and quenched after 10 min. The concentration of the product was determined from an AMC standard curve and the data was fit by nonlinear regression. Since the curves were nonlinear, they were fit to equation 5, using the GraFit version 5.0.11 software package, [Product]=vi(1−e^−kobs.app*t)/kobs.app (eq 5), where vi is the initial velocity, kobs.app is the apparent pseudo-first order rate constant for inactivation, and t is time. Equation 6, kobs=[…] (eq 6), was used to correct the apparent pseudo-first-order inactivation rate constants, obtained from this analysis, for substrate concentration and the pseudo-first-order inactivation rate constants, i.e. kobs, thus obtained, were plotted against the tested inhibitor concentrations. […]

Chain of CYP2C19 (P33261 whole entry): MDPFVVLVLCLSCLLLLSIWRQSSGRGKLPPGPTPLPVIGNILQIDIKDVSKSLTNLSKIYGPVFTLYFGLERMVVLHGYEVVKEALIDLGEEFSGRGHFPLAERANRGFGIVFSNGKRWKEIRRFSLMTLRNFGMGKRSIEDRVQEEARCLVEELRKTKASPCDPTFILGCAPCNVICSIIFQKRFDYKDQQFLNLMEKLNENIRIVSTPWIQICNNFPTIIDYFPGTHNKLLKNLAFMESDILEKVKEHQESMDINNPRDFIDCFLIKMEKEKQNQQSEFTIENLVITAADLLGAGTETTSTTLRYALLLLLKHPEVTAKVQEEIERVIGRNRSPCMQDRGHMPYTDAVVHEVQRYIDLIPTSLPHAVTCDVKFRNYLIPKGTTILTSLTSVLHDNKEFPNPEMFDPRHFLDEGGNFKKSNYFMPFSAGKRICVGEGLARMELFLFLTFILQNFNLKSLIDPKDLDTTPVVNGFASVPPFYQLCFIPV
Chain of CYP3A4 (P08684 whole entry): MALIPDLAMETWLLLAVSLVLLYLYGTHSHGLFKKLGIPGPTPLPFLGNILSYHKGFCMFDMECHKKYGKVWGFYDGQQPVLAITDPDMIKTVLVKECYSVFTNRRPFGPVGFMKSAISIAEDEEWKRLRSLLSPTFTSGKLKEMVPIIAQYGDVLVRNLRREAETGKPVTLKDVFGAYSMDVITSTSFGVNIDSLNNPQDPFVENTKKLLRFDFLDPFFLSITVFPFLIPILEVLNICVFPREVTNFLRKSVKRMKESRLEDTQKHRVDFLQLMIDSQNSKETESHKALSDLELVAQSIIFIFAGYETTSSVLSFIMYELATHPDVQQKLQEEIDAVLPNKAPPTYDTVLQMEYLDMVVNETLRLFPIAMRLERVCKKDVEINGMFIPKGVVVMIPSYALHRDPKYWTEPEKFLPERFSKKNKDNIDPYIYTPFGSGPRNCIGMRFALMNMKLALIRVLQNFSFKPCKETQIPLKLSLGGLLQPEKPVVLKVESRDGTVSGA
Chain of CYP2D6 (P10635 whole entry): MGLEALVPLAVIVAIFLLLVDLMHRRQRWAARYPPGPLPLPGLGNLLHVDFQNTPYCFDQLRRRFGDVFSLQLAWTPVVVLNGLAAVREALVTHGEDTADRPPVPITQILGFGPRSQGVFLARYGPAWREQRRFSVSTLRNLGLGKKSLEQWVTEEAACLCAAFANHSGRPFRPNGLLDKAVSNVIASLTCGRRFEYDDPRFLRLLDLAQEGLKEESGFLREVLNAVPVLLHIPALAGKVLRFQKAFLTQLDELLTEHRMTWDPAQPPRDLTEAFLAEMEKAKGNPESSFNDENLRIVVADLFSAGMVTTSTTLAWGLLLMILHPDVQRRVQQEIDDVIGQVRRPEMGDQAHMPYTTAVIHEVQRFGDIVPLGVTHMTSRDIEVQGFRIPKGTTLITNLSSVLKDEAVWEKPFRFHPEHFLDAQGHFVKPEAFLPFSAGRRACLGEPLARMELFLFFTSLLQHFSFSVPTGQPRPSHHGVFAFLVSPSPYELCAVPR
Chain of CYP2C9 (P11712 whole entry): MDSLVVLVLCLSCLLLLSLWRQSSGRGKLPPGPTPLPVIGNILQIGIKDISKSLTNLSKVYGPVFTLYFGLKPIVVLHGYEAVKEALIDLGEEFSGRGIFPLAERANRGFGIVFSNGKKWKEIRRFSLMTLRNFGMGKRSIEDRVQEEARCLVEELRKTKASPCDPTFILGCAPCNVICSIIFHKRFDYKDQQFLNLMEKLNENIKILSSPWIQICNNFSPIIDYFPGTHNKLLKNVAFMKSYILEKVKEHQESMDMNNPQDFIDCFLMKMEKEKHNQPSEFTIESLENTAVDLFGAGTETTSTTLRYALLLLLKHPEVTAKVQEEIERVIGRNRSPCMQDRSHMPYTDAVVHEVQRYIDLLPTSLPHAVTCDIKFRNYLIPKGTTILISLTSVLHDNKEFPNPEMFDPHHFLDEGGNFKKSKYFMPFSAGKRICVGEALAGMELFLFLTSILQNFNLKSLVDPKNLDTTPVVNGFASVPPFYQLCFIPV
Chain of Cathepsin-L (P07711 114-333, species assumed): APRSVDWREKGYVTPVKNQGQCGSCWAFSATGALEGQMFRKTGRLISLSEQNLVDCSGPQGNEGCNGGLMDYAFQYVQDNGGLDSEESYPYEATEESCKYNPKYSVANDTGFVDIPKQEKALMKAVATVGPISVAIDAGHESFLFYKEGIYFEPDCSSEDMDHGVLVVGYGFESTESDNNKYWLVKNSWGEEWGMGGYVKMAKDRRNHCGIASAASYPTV

For Cc1cccc(NCc2ccc(O)c3ncccc23)c1C [Compound 12], the Pe [1] was “<LLOQ”, the CYP3A4-Midazolam inhibition (CYP3A4; 3 μM) was −2.5% and the CYP3A4-Midazolam inhibition (CYP3A4; 10 μM) was −2.5%. For the same compound, the CYP3A-Testosterone inhibition (CYP3A; 3 μM) was 14.2%, the CYP3A-Testosterone inhibition (CYP3A; 10 μM) was 27.6% and the CYP2C9 inhibition (CYP2C9; 3 μM) was 4.3%. It also gave a CYP2C9 inhibition (CYP2C9; 10 μM) of −2.7%, a CYP2D6 inhibition (CYP2D6; 3 μM) of 2.9% and a CYP2D6 inhibition (CYP2D6; 10 μM) of −2.6%. For the same compound, the CYP2C19 inhibition (CYP2C19; 3 μM) was 13.4%, the CYP2C19 inhibition (CYP2C19; 10 μM) was 29.4% and the CYP1A2 inhibition (CYP1A2; 3 μM) was 28.4%. For the same compound, the CYP1A2 inhibition (CYP1A2; 10 μM) was 44.5%, the “AEP activity in OGD neurons” value (AEP [2]) was “slight decrease” and the “APP cleavage after OGD” value ([3]; 1 μM compound) was “blocked”. The “APP cleavage after OGD, dose dependence” value ([3]; FIG. 7E) was “dose-dependent decrease”, the “A −>B Papp” value (Caco-2 monolayer) was 1.4 10^−6 cm · s^−1 and the “B −> A Papp” value (Caco-2 monolayer) was 3.7 10^−6 cm · s^−1. The RE (Caco-2 monolayer) was 2.7, the “Mean Remaining Parent (NADPH-free)” value [4] was 1% and the “Mean Remaining Parent (with NADPH)” value ([4]; 30 min) was 1%. The “Mean Remaining Parent (NADPH-free)” value [5] was 0% and the “Mean Remaining Parent (with NADPH)” value [5] was 1%.
With Sc1nnc(Nc2ccccc2)s1 [Compound BB1] the IC50 (AEP [6]) was about 130 nM, the “selectivity for AEP over Cathepsin-L” value (Cathepsin-L) was “about 38 fold” and the “IC50 in intact Pala cells” value [7] was “slightly larger IC50 values”. For the same compound, the “AEP activity after addition of reducing agent (reversibility)” value (AEP [8]) was “regained a substantial amount of activity”, the “inhibition constants in words” value (AEP [9]) was “nanomolar-range” and the “second-order rate constant, kinact/KI” value (AEP [10]) was 55000 M⁻¹ s⁻¹.
